Like-named read-outs stand apart in the source and are kept apart here.
Tests used:
Assay type in all cases: cell-based
DL1 cells = test: cytotoxicity in Drosophila DL1 cells; details: DL1 cells; for IC50: Drosophila melanogaster, cytotoxicity
Description: (§1) We screened the DDPs on the Drosophila assay system for cytotoxicity, inhibitory activity of innate immune signalling and insecticidal activity. The cytotoxicity of the DDPs was evaluated using two cell lines, embryonic macrophage-derived DL1 cells[58]–[60] and larval blood cell-derived l(2)mbn cells, and their IC50 values are listed in Supplementary Table 23.

[1] = cytotoxicity in Drosophila DL1 cells; details: Drosophila, DL1 cells (embryonic macrophage-derived), DL1 cells
Description: as §1

[2] = test system: hepatitis B virus (HBV), measles virus (MV), Epstein-Barr virus (EBV), herpes simplex virus (HSV); test: preliminary anti-viral screening (other viruses)
Description: (§2) We examined the inhibitory activities of DDPs against various species of bacteria (both gram-negative and gram-positive bacteria), fungi and viruses. […] In contrast, preliminary screening of the DDPs for anti-viral agents with hepatitis B virus (HBV), measles virus (MV), Epstein-Barr virus (EBV), herpes simplex virus (HSV) and human immunodeficiency virus-1 (HIV-1) indicated their selective inhibition of HIV.

[3] = test system: human immunodeficiency virus-1 (HIV-1); test: anti-HIV MAGI assay; details: Human immunodeficiency virus 1, MAGI, anti-HIV, MAGI assay; read-out: EC50
Description: as §2

[4] = cytotoxicity in Drosophila l(2)mbn cells; details: Drosophila, l(2)mbn cells (larval blood cell-derived)
Description: as §1

l(2)mbn cells = test: cytotoxicity in Drosophila l(2)mbn cells; details: for Luminescence Raw1: replicate 1; for Luminescence Raw2: replicate 2; for IC50: Drosophila melanogaster, cytotoxicity
Description: as §1

[5] = average of two replicates, read-out: IC50 Average
[6] = replicate 1, read-out: IC50 (1)
[7] = replicate 2, read-out: IC50 (2)
[8] = replicate 1, relative to DMSO 1%, read-out: % viability, viability 1
[9] = replicate 2, relative to DMSO 1%, read-out: % viability, viability 2

Question: Which “Luminescence Raw1” value (DL1 cells; 0.04 µM, replicate 1) does the source give for `C=C1CC[C@H]2[C@]3(C)C[C@H](C=C(C)C)O[C@H]3CC[C@]2(C)[C@@H]1Cc1c(OC)oc(C)c(C)c1=O` [Compound 24] here?
Answer: 2516748

Question: And the “Luminescence Raw2” value (DL1 cells; 0.04 µM, replicate 2)?
Answer: 2332079

Question: And the “Luminescence Raw1” value (DL1 cells; 0.2 µM, replicate 1)?
Answer: 850222

Question: What about the “Luminescence Raw2” value (DL1 cells; 0.2 µM, replicate 2) of the same compound?
Answer: 975712

Question: What about the “Luminescence Raw1” value (DL1 cells; 1 µM, replicate 1) of the same compound?
Answer: 178460

Question: And the “Luminescence Raw2” value (DL1 cells; 1 µM, replicate 2)?
Answer: 208026

Question: And the “Luminescence Raw1” value (DL1 cells; 4 µM, replicate 1)?
Answer: 158268

Question: And the “Luminescence Raw2” value (DL1 cells; 4 µM, replicate 2)?
Answer: 147451

Question: And the “Luminescence Raw1” value (DL1 cells; 10 µM, replicate 1)?
Answer: 159710

Question: What about the “Luminescence Raw2” value (DL1 cells; 10 µM, replicate 2) of the same compound?
Answer: 170888

Question: And the “Luminescence Raw1” value (DL1 cells; 20 µM, replicate 1)?
Answer: 153581

Question: And the “Luminescence Raw2” value (DL1 cells; 20 µM, replicate 2)?
Answer: 168364

Question: And the IC50 (DL1 cells; [5])?
Answer: 0.242 µM

Question: And the IC50 (DL1 cells; average±SEM, read-out: IC50)?
Answer: 0.24 ± 0.01 µM

Question: And the IC50 (DL1 cells; [6])?
Answer: 0.237 µM

Question: And the IC50 (DL1 cells; [7])?
Answer: 0.248 µM

Question: What about the viability at 0.04 µM [1, 8] of the same compound?
Answer: 122%

Question: And the viability at 0.04 µM [1, 9]?
Answer: 113%

Question: What about the viability at 0.2 µM [1, 8] of the same compound?
Answer: 41.3%

Question: What about the viability at 0.2 µM [1, 9] of the same compound?
Answer: 47.4%

Question: What about the viability at 1 µM [1, 8] of the same compound?
Answer: 8.66%

Question: What about the viability at 1 µM [1, 9] of the same compound?
Answer: 10.1%

Question: What about the viability at 4 µM [1, 8] of the same compound?
Answer: 7.68%

Question: And the viability at 4 µM [1, 9]?
Answer: 7.16%

Question: And the viability at 10 µM [1, 8]?
Answer: 7.75%

Question: What about the viability at 10 µM [1, 9] of the same compound?
Answer: 8.3%

Question: And the viability at 20 µM [1, 8]?
Answer: 7.46%

Question: And the viability at 20 µM [1, 9]?
Answer: 8.17%

Question: And the “effect on other viruses” value [2]?
Answer: without affecting other viruses

Question: What about the EC50 [3] of the same compound?
Answer: < 0.2 µM

Question: And the viability at 0.04 µM [4, 8]?
Answer: 135%

Question: What about the viability at 0.04 µM [4, 9] of the same compound?
Answer: 110%

Question: What about the viability at 0.2 µM [4, 8] of the same compound?
Answer: 137%

Question: And the viability at 0.2 µM [4, 9]?
Answer: 130%

Question: And the viability at 1 µM [4, 8]?
Answer: 130%

Question: What about the viability at 1 µM [4, 9] of the same compound?
Answer: 122%

Question: What about the viability at 4 µM [4, 8] of the same compound?
Answer: 10.4%

Question: What about the viability at 4 µM [4, 9] of the same compound?
Answer: 8.47%

Question: What about the viability at 10 µM [4, 8] of the same compound?
Answer: 6.42%

Question: What about the viability at 10 µM [4, 9] of the same compound?
Answer: 6.23%

Question: What about the viability at 20 µM [4, 8] of the same compound?
Answer: 6.64%

Question: And the viability at 20 µM [4, 9]?
Answer: 6.04%

Question: What about the “Luminescence Raw1” value (l(2)mbn cells; 0.04 µM) of the same compound?
Answer: 3470038

Question: What about the “Luminescence Raw2” value (l(2)mbn cells; 0.04 µM) of the same compound?
Answer: 2834452

Question: What about the “Luminescence Raw1” value (l(2)mbn cells; 0.2 µM) of the same compound?
Answer: 3507915

Question: And the “Luminescence Raw2” value (l(2)mbn cells; 0.2 µM)?
Answer: 3346307

Question: What about the “Luminescence Raw1” value (l(2)mbn cells; 1 µM) of the same compound?
Answer: 3332960

Question: And the “Luminescence Raw2” value (l(2)mbn cells; 1 µM)?
Answer: 3138530

Question: And the “Luminescence Raw1” value (l(2)mbn cells; 4 µM)?
Answer: 267094

Question: And the “Luminescence Raw2” value (l(2)mbn cells; 4 µM)?
Answer: 217335

Question: What about the “Luminescence Raw1” value (l(2)mbn cells; 10 µM) of the same compound?
Answer: 164693

Question: What about the “Luminescence Raw2” value (l(2)mbn cells; 10 µM) of the same compound?
Answer: 160006

Question: What about the “Luminescence Raw1” value (l(2)mbn cells; 20 µM) of the same compound?
Answer: 170462

Question: And the “Luminescence Raw2” value (l(2)mbn cells; 20 µM)?
Answer: 154958

Question: And the IC50 (l(2)mbn cells; [5])?
Answer: 3.04 µM

Question: What about the IC50 (l(2)mbn cells; average±SEM, read-out: IC50) of the same compound?
Answer: 3.04 ± 0.16 µM

Question: What about the IC50 (l(2)mbn cells; [6]) of the same compound?
Answer: 3.2 µM

Question: And the IC50 (l(2)mbn cells; [7])?
Answer: 2.88 µM
